Measured values from article PMC10989010, “A panel of janus kinase inhibitors identified with anti-inflammatory effects protect mice from lethal influenza virus infection” (Antimicrobial Agents and Chemotherapy, 2024).
pIC50: −log10 of the molar value. Structures can show the parent of a compound that is named as a salt. Where two headings read alike, the source gives them in different places.

Columns and labels:
[1] = Cytotoxicity assay (CellTiter-Glo); assay type: cell-based, human; details: human
Description: (§1) The compound cytotoxicity was determined by CellTiter-Glo Assay (Promega, Madison, WI, USA). After adding 15 µL of CellTiter-Glo reagent to each well, plates were incubated at room temperature for 15 minutes with shaking. The luminescence intensity was determined by a multimode plate reader (Wallac Envision, PerkinElmer, MA, USA).

[2] = tested on: IL-8; assay: U937 cell-based anti-inflammatory assay for influenza virus infection, IL-8 production (AlphaLISA); set-up: species or system human; details: read-out: IC50 IL-8
Description: U937 cells were seeded in a 96-well culture plate at a density of 1.5 × 10^5 cells per well and incubated for 24 hours prior to virus infection. Subsequently, the cells in each well were infected with the PR8 virus at a multiplicity of infection of 0.05 and treated with serially diluted drugs or left untreated as a control. The drugs were serially diluted threefold, starting from an initial concentration of 200 µM down to 0.01 µM. […] Following this incubation, the supernatants were collected and subjected to AlphaLISA analysis to determine IL-8, IP-10, and MCP1 protein levels.
The AlphaLISA detection kits employed in this study were IL-8 (PerkinElmer AL224), IP-10 (PerkinElmer AL259), and MCP1 (PerkinElmer, AL244). U937 cell culture supernatants were measured for IL-8, IP-10, and MCP-1 protein levels using AlphaLISA assay as per the manufacturer’s recommendations. The ELISA and AlphaLISA plates were read using the Varioskan LUX multimode microplate reader (Thermo Scientiﬁc, Waltham, MA, USA).

[3] = tested on: IP-10; assay: cells; assay type: cell-based, human; details: read-out: IC50 IP-10
[4] = tested on: MCP1; assay: cells; assay type: cell-based, human; details: read-out: IC50 MCP1
[5] = tested on: U937 cells; assay: Cytotoxicity assay (CellTiter-Glo); assay type: cell-based, human; details: U937 cells; CellTiter-Glo; mean of three independent experiments
Description: as §1

[6] = U937 cells, CellTiter-Glo, mean of three independent experiments, read-out: CC50

SMILES | CC50 [1, 6] [µM] | pIC50 ([2]; Homo sapiens, U-937, 72 h) | pIC50 ([3]; Homo sapiens, U-937, 72 h) | pIC50 ([4]; Homo sapiens, U-937, 72 h) | pIC50 ([2]; U937 cells infected with PR8 virus, 72 hours, Alphalisa, mean of three independent experiments) | pIC50 [3] | pIC50 [4] | CC50 [5] [µM] | CC50 [1] [µM]
C[C@@H]1CCN(C(=O)CC#N)C[C@@H]1N(C)c1ncnc2[nH]ccc12 [Tofacitinib citrate] | > 100 |  |  |  |  |  |  |  | 
N#CC[C@@H](C1CCCC1)n1cc(-c2ncnc3[nH]ccc23)cn1 [S-Ruxolitinib] | 100 | 7.52 | 7.10 | 7.22 |  |  |  |  | 
CN1CCN(c2cccc(Nc3nc4c(-c5ccc(S(C)(=O)=O)cc5)cccn4n3)c2)CC1 [CEP-33779] |  |  |  |  | 6.44 | 6.66 | 6.62 | 10.5 | 
C[C@@H]1CCN(C(=O)CC#N)C[C@@H]1N(C)c1ncnc2[nH]ccc12 [Tofacitinib] |  |  |  |  |  |  |  | > 100 | 
N#CC[C@H](C1CCCC1)n1cc(-c2ncnc3[nH]ccc23)cn1 [Ruxolitinib] |  | 6.92 | 7.15 | 7.52 |  |  |  | 100 | 
NC(=O)c1cnc2[nH]ccc2c1N[C@@H]1[C@@H]2CC3C[C@H]1C[C@@](O)(C3)C2 [Peficitinib] |  | 8.00 | 7.70 |  |  |  |  |  | 34.7
Cc1cc(Nc2nc(N[C@@H](C)c3ccc(F)cc3)c(C#N)cc2F)n[nH]1 [AZ 960] |  | > 8.30 | 8.00 | > 8.30 |  |  |  | 6 | 
CCS(=O)(=O)N1CC(CC#N)(n2cc(-c3ncnc4[nH]ccc34)cn2)C1 [Baricitinib] |  |  |  |  |  |  |  | > 100 | 
Cc1cc(Nc2nc(N[C@@H](C)c3ncc(F)cn3)ncc2Cl)n[nH]1 [AZD1480] | 13.5 | 5.96 | 6.00 | 6.52 |  |  |  |  | 
N#CCNC(=O)c1ccc(-c2ccnc(Nc3ccc(N4CCOCC4)cc3)n2)cc1 [Momelotinib] |  | 6.52 | 6.32 | 7.52 |  |  |  | 5.4 | 
CC[C@@](C)(Nc1ccnc(-c2c[nH]c3ncccc23)n1)C(=O)NCC(F)(F)F [Decernotinib] |  |  | 7.00 | 7.30 |  |  |  | 50 | 
O=C(Nc1ccc(-c2ccnc(Nc3ccc(N4CCOCC4)cc3)n2)cc1)C1CCCN1 (stereo not drawn) [XL019] |  | 6.29 | 6.00 | 6.03 |  |  |  | 26.7 | 
Cc1cc(Nc2cc(CN3CCOCC3)c3nc(C)c(Cc4ccc(Cl)cc4F)n3n2)n[nH]1 [Gandotinib] |  | > 8.30 | 8.00 | > 8.30 |  |  |  | 26 | 
CCS(=O)(=O)N1CCN(c2ccc(Nc3ncc(C(N)=O)c(NC4CC4)n3)cc2)CC1 [Cerdulatinib hydrochloride] |  | > 8.30 | 7.30 | 7.70 |  |  |  | 3.5 | 
